PubChem BioAssay AID2060895 (Molecular Pharmacology Branch, DTP, NCI, 2025)

Tested on: PDC 899932-113-R3-J6 complex spheroid viability
Test: Anticancer human tumor 899932-113-R3-J6-PDC patient-derived melanoma cell line growth inhibition [RAS]
Conditions: for IC50: curve of first compound; for viability, T/C: stronger effect = lower value
Text: RAS pathway inhibitors in Combinations in Complex Spheroids
A high-throughput screen of multi-cell type tumor spheroids was designed to identify active combinations of RAS pathway inhibitors and targeted small molecules. Complex spheroids include a stromal component modeled by human endothelial cells (HUVEC) and fibroblasts modeled by human mesenchymal stem cells (MSCs). The concentration ranges selected for each drug and investigational agent were based upon clinically achievable concentrations if the clinical Cmax of the agent was known.
Compounds. The drugs and investigational agents: abemaciclib (NSC768073), cobimetinib (NSC768068), divarasib (GDC6063, NSC841802), docetaxel (NSC628503), GDC-1971 (RLY-1971, NSC841576), gemcitabine (NSC613327), inavolisib (NSC800729), ipatasertib (NSC767898), KB-0742 (NSC834161), MRTX-1133 (NSC836407), osimertinib (NSC779217), RMC-4630 (NSC839698), RMC-6236 (NSC851965), RMC-6291 (NSC852671), Ro-3306 (NSC812927), sapanisertib (NSC764658), SN-38 (NSC673596), staurosporine (NSC755774), SY5609 (NSC837396), and tovorafenib (DAY101, NSC766906), were obtained from the National Cancer Institute (NCI) Developmental Therapeutics Program Chemical Repository. The FDA-approved anticancer drug set is available from the NCI Developmental Therapeutics Program. […] The stock solutions were prepared in dimethyl sulfoxide (DMSO, Sigma-Aldrich, St. Louis, MO, cat. D2650) at 800-fold the tested concentration and stored at -70 degrees C prior to their use. All drugs and investigational agents were tested over a range starting from a high concentration at or near the clinical Cmax and decreasing in half-log increments. If the clinical Cmax for an agent had not been determined, the highest concentration tested was 10 microM.
Cell Culture. All cells were maintained in an incubator at 37 degrees C and 5% CO2 with 95% humidity. The PDC lines were cultured according to standard operating procedures established by the NCI PDMR. All PDCs were thawed and cultured in Matrigel-coated flasks prepared with a working solution of 1X Ham's F-12 nutrient mix, without supplementation (Invitrogen, Waltham, MA, cat. 11765054), 100 U/mL penicillin-streptomycin (Invitrogen, cat. 15140122), and 2.5% Matrigel (Corning Inc., Corning, NY, cat. 354248) for the first three passages. The 362531-283-R-J2-PDC and 782815-120-R-J1-PDC lines were cultured in 6C/Colon 1B media, which includes advanced DMEM/F-12 (Thermo Fisher Scientific, cat. 12634028), 10 mM HEPES (Thermo Fisher Scientific, cat. 15630080), 1X GlutaMAX supplement (Thermo Fisher Scientific, cat. 35050061), 0.1 mg/mL primocin (InvivoGen, San Diego, CA, cat. ant-pm-2), 10% defined fetal bovine serum, heat inactivated (HyClone Laboratories Inc., Logan, UT, cat. SH30070.03HI), 50% L-WRN conditioned media (ATCC, cat. CRL-3276), 1.25 mM N-Acetyl-L-cysteine (Sigma-Aldrich, cat. A9165), 10 mM nicotinamide (Sigma-Aldrich, cat. N0636), 1X B-27 supplement (Thermo Fisher Scientific, cat. 17504044), 1X N-2 supplement (Thermo Fisher Scientific, cat. 17502048), 50 ng/mL human EGF (Thermo Fisher Scientific, cat. PHG0311), and 10 microM Y-27632 dihydrochloride (Tocris Bioscience, cat. 1254). The K12877-001-R-J1-PDC line was cultured in 6I media, which includes all 6C/Colon 1B media plus 10 ng/mL human FGF-10 (PeproTech, cat. 100-26), 1 ng/mL human FGF-2 (PeproTech, cat. 100-18B), 1 µM prostaglandin E2 (Tocris Bioscience, cat. 2296), […] hydrocortisone (Sigma-Aldrich, cat. H4001), and […] bovine insulin (Sigma-Aldrich, cat. I6634). The K86415-001-R-J1-PDC line was cultured in 6D media, which includes all 6C/Colon 1B media components minus the L-WRN conditioned media. The 485176-168-R4-J1-PDC was cultured in PANC media, which includes all 6C/Colon 1B media plus 100 ng/mL human FGF-10 (PeproTech, cat. 100-26), 500 nM SB-431542 (Selleckchem, cat. S1067), and 10 nM gastrin (Tocris Bioscience, cat. 3006). […]

[1] = second compound 0.0316 µM, first compound 0.0316 µM
[2] = second compound 0.0316 µM, first compound 0.1 µM
[3] = second compound 0.0316 µM, first compound 0.316 µM
[4] = second compound 0.0316 µM, first compound 1 µM
[5] = second compound 0.0316 µM, first compound 3.16 µM
[6] = second compound 0.0316 µM, first compound 10 µM
[7] = second compound 0.1 µM, first compound 0.0316 µM
[8] = second compound 0.1 µM, first compound 0.1 µM
[9] = second compound 0.1 µM, first compound 0.316 µM
[10] = second compound 0.1 µM, first compound 1 µM
[11] = second compound 0.1 µM, first compound 3.16 µM
[12] = second compound 0.1 µM, first compound 10 µM
[13] = second compound 0.316 µM, first compound 0.0316 µM
[14] = second compound 0.316 µM, first compound 0.1 µM
[15] = second compound 0.316 µM, first compound 0.316 µM
[16] = second compound 0.316 µM, first compound 1 µM
[17] = second compound 0.316 µM, first compound 3.16 µM
[18] = second compound 0.316 µM, first compound 10 µM
[19] = second compound 1 µM, first compound 0.0316 µM
[20] = second compound 1 µM, first compound 0.1 µM
[21] = second compound 1 µM, first compound 0.316 µM
[22] = second compound 1 µM, first compound 1 µM
[23] = second compound 1 µM, first compound 3.16 µM
[24] = second compound 1 µM, first compound 10 µM
[25] = second compound 3.16 µM, first compound 0.0316 µM
[26] = second compound 3.16 µM, first compound 0.1 µM
[27] = second compound 3.16 µM, first compound 0.316 µM
[28] = second compound 3.16 µM, first compound 1 µM
[29] = second compound 3.16 µM, first compound 3.16 µM
[30] = second compound 3.16 µM, first compound 10 µM
[31] = second compound 10 µM, first compound 0.0316 µM
[32] = second compound 10 µM, first compound 0.1 µM
[33] = second compound 10 µM, first compound 0.316 µM
[34] = second compound 10 µM, first compound 1 µM
[35] = second compound 10 µM, first compound 3.16 µM
[36] = second compound 10 µM, first compound 10 µM
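Throughout, for viability, T/C: spheroids exposed to agents for seven days before readout; 100% = DMSO vehicle control wells.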

**Q.** `CC1(O)CCCC1n1c(=O)c(C(F)F)cc2cnc(NC3CCN(S(C)(=O)=O)CC3)nc21` (centres undefined) + C#Cc1c(F)ccc2cc(O)cc(-c3ncc4c(N5CC6CCC(C5)N6)nc(OCC56CCCN5CC(F)C6)nc4c3F)c12 was tested. Which IC50 (second compound 0.0316 µM) did it give?
**A.** 2470 nM

**Q.** And the IC50 (second compound 0.1 µM)?
**A.** 2570 nM

**Q.** And the IC50 (second compound 0.316 µM)?
**A.** 3200 nM

**Q.** And the IC50 (second compound 1 µM)?
**A.** 3470 nM

**Q.** And the IC50 (second compound 3.16 µM)?
**A.** 3050 nM

**Q.** What about the IC50 (second compound 10 µM) of the same compound?
**A.** 3120 nM

**Q.** And the viability, T/C [1]?
**A.** 105%

**Q.** What about the viability, T/C [2] of the same compound?
**A.** 81.1%

**Q.** What about the viability, T/C [3] of the same compound?
**A.** 70.8%

**Q.** And the viability, T/C [4]?
**A.** 69.9%

**Q.** And the viability, T/C [5]?
**A.** 54.9%

**Q.** What about the viability, T/C [6] of the same compound?
**A.** 21.6%

**Q.** And the viability, T/C [7]?
**A.** 96.2%

**Q.** And the viability, T/C [8]?
**A.** 86.9%

**Q.** What about the viability, T/C [9] of the same compound?
**A.** 63.6%

**Q.** What about the viability, T/C [10] of the same compound?
**A.** 62.3%

**Q.** And the viability, T/C [11]?
**A.** 62%

**Q.** And the viability, T/C [12]?
**A.** 24.5%

**Q.** What about the viability, T/C [13] of the same compound?
**A.** 99.2%

**Q.** What about the viability, T/C [14] of the same compound?
**A.** 93%

**Q.** And the viability, T/C [15]?
**A.** 75.9%

**Q.** What about the viability, T/C [16] of the same compound?
**A.** 65.3%

**Q.** And the viability, T/C [17]?
**A.** 56.6%

**Q.** And the viability, T/C [18]?
**A.** 25.5%

**Q.** And the viability, T/C [19]?
**A.** 102%

**Q.** And the viability, T/C [20]?
**A.** 89.7%

**Q.** What about the viability, T/C [21] of the same compound?
**A.** 76.3%

**Q.** What about the viability, T/C [22] of the same compound?
**A.** 70%

**Q.** What about the viability, T/C [23] of the same compound?
**A.** 58.4%

**Q.** What about the viability, T/C [24] of the same compound?
**A.** 24.7%

**Q.** And the viability, T/C [25]?
**A.** 114%

**Q.** What about the viability, T/C [26] of the same compound?
**A.** 97.8%

**Q.** What about the viability, T/C [27] of the same compound?
**A.** 69.8%

**Q.** What about the viability, T/C [28] of the same compound?
**A.** 72.2%

**Q.** What about the viability, T/C [29] of the same compound?
**A.** 62.4%

**Q.** What about the viability, T/C [30] of the same compound?
**A.** 22.2%

**Q.** And the viability, T/C [31]?
**A.** 114%

**Q.** And the viability, T/C [32]?
**A.** 89%

**Q.** And the viability, T/C [33]?
**A.** 77.2%

**Q.** What about the viability, T/C [34] of the same compound?
**A.** 68.8%

**Q.** What about the viability, T/C [35] of the same compound?
**A.** 64.8%

**Q.** What about the viability, T/C [36] of the same compound?
**A.** 11.3%

**Q.** With `CCC(CC)c1cc(NC2CCC(N)C2)n2nccc2n1` (centres undefined) + C#Cc1c(F)ccc2cc(O)cc(-c3ncc4c(N5CC6CCC(C5)N6)nc(OCC56CCCN5CC(F)C6)nc4c3F)c12 as the compound, how does the IC50 (second compound 0.0316 µM) read?
**A.** 1690 nM

**Q.** What about the IC50 (second compound 0.1 µM) of the same compound?
**A.** 1640 nM

**Q.** And the IC50 (second compound 0.316 µM)?
**A.** 1660 nM

**Q.** What about the IC50 (second compound 1 µM) of the same compound?
**A.** 1740 nM

**Q.** And the IC50 (second compound 3.16 µM)?
**A.** 1790 nM

**Q.** And the IC50 (second compound 10 µM)?
**A.** 1720 nM

**Q.** What about the viability, T/C [1] of the same compound?
**A.** 96.8%

**Q.** What about the viability, T/C [2] of the same compound?
**A.** 91.5%

**Q.** What about the viability, T/C [3] of the same compound?
**A.** 103%

**Q.** And the viability, T/C [4]?
**A.** 91.5%

**Q.** What about the viability, T/C [5] of the same compound?
**A.** 0.88%

**Q.** What about the viability, T/C [6] of the same compound?
**A.** 0.24%

**Q.** And the viability, T/C [7]?
**A.** 104%

**Q.** And the viability, T/C [8]?
**A.** 104%

**Q.** What about the viability, T/C [9] of the same compound?
**A.** 92.9%

**Q.** And the viability, T/C [10]?
**A.** 87.3%

**Q.** And the viability, T/C [11]?
**A.** 0.78%

**Q.** And the viability, T/C [12]?
**A.** 0.23%

**Q.** And the viability, T/C [13]?
**A.** 107%

**Q.** And the viability, T/C [14]?
**A.** 93.9%

**Q.** And the viability, T/C [15]?
**A.** 98.5%

**Q.** And the viability, T/C [16]?
**A.** 88.3%

**Q.** And the viability, T/C [17]?
**A.** 0.84%

**Q.** And the viability, T/C [18]?
**A.** 0.9%

**Q.** And the viability, T/C [19]?
**A.** 112%

**Q.** What about the viability, T/C [20] of the same compound?
**A.** 112%

**Q.** What about the viability, T/C [21] of the same compound?
**A.** 120%

**Q.** And the viability, T/C [22]?
**A.** 95.2%

**Q.** And the viability, T/C [23]?
**A.** 1.22%

**Q.** What about the viability, T/C [24] of the same compound?
**A.** 0.22%

**Q.** What about the viability, T/C [25] of the same compound?
**A.** 103%

**Q.** What about the viability, T/C [26] of the same compound?
**A.** 107%

**Q.** And the viability, T/C [27]?
**A.** 107%

**Q.** What about the viability, T/C [28] of the same compound?
**A.** 100%

**Q.** And the viability, T/C [29]?
**A.** 0.97%

**Q.** And the viability, T/C [30]?
**A.** 0.24%

**Q.** What about the viability, T/C [31] of the same compound?
**A.** 116%

**Q.** What about the viability, T/C [32] of the same compound?
**A.** 105%

**Q.** What about the viability, T/C [33] of the same compound?
**A.** 105%

**Q.** What about the viability, T/C [34] of the same compound?
**A.** 94.2%

**Q.** And the viability, T/C [35]?
**A.** 0.5%

**Q.** What about the viability, T/C [36] of the same compound?
**A.** 0.27%
